The text below walks through data of patent US20220401407A1, “REGULATION OF THE SLEEP/WAKE CYCLE USING C[…]” (Demetrix, Inc., priority 2021, published 2022).

Common to all, as to format: cell-based
Test [1] deals with T1, HCRTR1 (Homo sapiens, UniProt O43613).
T1 sequence (O43613 1-425): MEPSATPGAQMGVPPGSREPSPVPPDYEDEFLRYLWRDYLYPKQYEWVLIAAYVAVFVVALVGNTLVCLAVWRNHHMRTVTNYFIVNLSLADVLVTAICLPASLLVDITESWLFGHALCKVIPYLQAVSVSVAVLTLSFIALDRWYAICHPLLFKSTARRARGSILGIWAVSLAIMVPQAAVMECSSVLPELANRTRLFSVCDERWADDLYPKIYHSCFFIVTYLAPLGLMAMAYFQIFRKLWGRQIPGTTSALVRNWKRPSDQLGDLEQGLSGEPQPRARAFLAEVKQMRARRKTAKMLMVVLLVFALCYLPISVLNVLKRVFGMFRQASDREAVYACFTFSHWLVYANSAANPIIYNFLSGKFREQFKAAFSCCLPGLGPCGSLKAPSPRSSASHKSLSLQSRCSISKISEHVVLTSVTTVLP
In words: PathHunter β-Arrestin GPCR agonist assay, HCRTR1. More on the design: concentration or dose not given beside the values. To be noted: agonist mode; Orexin A as control. The procedure:
(§1) To evaluate the role specific cannabinoid compounds may play on the sleep/wake cycle, a GPCR reactivity assay was performed to determine the reactivity of 19 cannabinoid compounds to the orexin receivers HCRTR1 and HCRTR2. The evaluated cannabinoid compounds were: CBN, THCV, CBDVA, CBG, CBL, CBC, CBDV, CBDA, CBD, CBGA, (+)-CBD, CBG-C4, CBD-C1, CBD-C2, CBGV, CBGA-C4, CBGVA, CBCA, and CBLA. Orexin A was used as the control for HCRTR1 and HCRTR2.
(§2) To perform the GPCR reactivity assay, a commercial GPCR assay, PathHunter® β-Arrestin from Eurofins DiscoverX Products (Fremont, Calif.), was used. […] At activation of the GPCR receptor and recruitment of β-arrestin, complementation of the peptide fragments occurs and restores β-galactosidase activity. The amount of β-galactosidase activity is then measurable using chemiluminescent reagents.
(§3) A total of four assays were run. Agonist assays were run for each of HCRTR1 and HCRTR2 and antagonist assays were run for HCRTR1 and HCRTR2. In each of the two agonist assays, PathHunter® cell lines were removed from a freezer stock and seeded at a volume of 20 μL into white walled, 384-well microplates and incubated at 37° C. Each cell was incubated with a sample to induce a response and then diluted to generate a 5× sample in assay buffer. 5 μL of the 5× sample was then added to cells and incubated at 37° C. for 90 or 180 minutes. The final assay concentration was 1%. The assay signal was generated through addition of 12.5 μL or 15 μL (50% V/V) of a detection reagent cocktail followed by a one hour incubation time at room temperature. Microplates were read following signal generation with a PerkinElmer Envision™ (PerkinElmer Inc., Waltham, Mass.) for chemiluminescent signal detection. Reactivity was analyzed using the CBIS data analysis suite (ChemInnovation, CA) where RLU refers to the raw measured values. The percent activity was then calculated using the formula: % Activity=100%*(mean RLU of test sample−mean RLU of control)/(mean max control ligand−mean RLU of vehicle control).
(§4) For agonist activity, the percent activity is depicted while for antagonist activity, the percent inhibition is depicted.

Test [2] has as its target T2, HCRTR2 (Homo sapiens, UniProt O43614).
T2 sequence (O43614 1-444): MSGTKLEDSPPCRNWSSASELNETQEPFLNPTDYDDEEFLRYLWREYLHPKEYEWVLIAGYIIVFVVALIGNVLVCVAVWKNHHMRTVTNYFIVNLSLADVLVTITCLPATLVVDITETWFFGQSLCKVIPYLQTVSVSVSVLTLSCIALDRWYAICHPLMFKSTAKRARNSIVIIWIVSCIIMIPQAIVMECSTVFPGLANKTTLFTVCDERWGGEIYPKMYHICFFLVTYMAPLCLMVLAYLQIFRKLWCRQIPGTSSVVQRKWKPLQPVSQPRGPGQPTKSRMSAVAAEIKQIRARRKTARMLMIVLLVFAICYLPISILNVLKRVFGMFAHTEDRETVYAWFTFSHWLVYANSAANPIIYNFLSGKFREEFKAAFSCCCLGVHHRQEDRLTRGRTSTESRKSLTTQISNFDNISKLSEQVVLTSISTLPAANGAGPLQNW
Description: PathHunter β-Arrestin GPCR agonist assay, HCRTR2. More on the design: concentration or dose not given beside the values. To be noted: agonist mode; Orexin A as control. The procedure:
as §1, §2, §3, §4

Test [3] deals with T1, HCRTR1. Description: PathHunter β-Arrestin GPCR antagonist assay, HCRTR1. To be noted: for HCRTR1 (Antagonist) percent inhibition: antagonist mode, agonist challenge at EC80. The procedure:
as §1, §2
(§5) In each of the two antagonist assays, PathHunter® cell lines were removed from a freezer stock and seeded at a volume of 20 μL into white walled, 384-well microplates and incubated at 37° C. Each cell was pre-incubated with an antagonist followed by an agonist challenge at the EC80 concentration. Cells were then diluted to generate a 5× sample in assay buffer. 5 μL of the 5× sample was then added to cells and incubated at 37° C. for 30 minutes. Finally, 5 μL of 6×EC80 agonist in assay buffer were added to the cells and incubated at 37° C. for 90 minutes or 180 minutes. The assay signal was generated through addition of 12.5 μL or 15 μL (50% V/V) of a detection reagent cocktail followed by a one hour incubation time at room temperature. Microplates were read following signal generation with a PerkinElmer Envision™ (PerkinElmer Inc., Waltham, Mass.) for chemiluminescent signal detection. Reactivity was analyzed using the CBIS data analysis suite (ChemInnovation, CA) where RLU refers to the raw measured values. The percent inhibition was calculated using the formula: % Inhibition=100%*(1−mean RLU of test sample−mean RLU of control)/(mean RLU of EC80 control−mean RLU of vehicle control).
as §4

In test [4] the target is T2, HCRTR2. In words: PathHunter β-Arrestin GPCR antagonist assay, HCRTR2. To be noted: for HCRTR2 (Antagonist) percent inhibition: antagonist mode, agonist challenge at EC80. The protocol: as §1, §2, §5, §4
The next test concerns the target dopamine receptor DRD5 (Homo sapiens, UniProt P21918). Description: PathHunter β-Arrestin GPCR agonist assay, DRD5. More on the design: DRD5 (Agonist) percent activity: concentration or dose not given beside the values. To be noted: for DRD5 (Agonist) percent activity: agonist mode, dopamine as control.
Excerpt: as §2, §3
Table 2 depicts the results of evaluating the cannabinoid compounds to act as an agonist for the dopamine receptor DRD5. The same experimental procedure as used for HCRTR1 and HCRTR2 agonist testing (Table 1) was followed with the substitution of dopamine as the control for the DRD5 receptor.

“Also recorded” adds a separate entry of the source.

Chain of dopamine receptor DRD5 (P21918 whole entry): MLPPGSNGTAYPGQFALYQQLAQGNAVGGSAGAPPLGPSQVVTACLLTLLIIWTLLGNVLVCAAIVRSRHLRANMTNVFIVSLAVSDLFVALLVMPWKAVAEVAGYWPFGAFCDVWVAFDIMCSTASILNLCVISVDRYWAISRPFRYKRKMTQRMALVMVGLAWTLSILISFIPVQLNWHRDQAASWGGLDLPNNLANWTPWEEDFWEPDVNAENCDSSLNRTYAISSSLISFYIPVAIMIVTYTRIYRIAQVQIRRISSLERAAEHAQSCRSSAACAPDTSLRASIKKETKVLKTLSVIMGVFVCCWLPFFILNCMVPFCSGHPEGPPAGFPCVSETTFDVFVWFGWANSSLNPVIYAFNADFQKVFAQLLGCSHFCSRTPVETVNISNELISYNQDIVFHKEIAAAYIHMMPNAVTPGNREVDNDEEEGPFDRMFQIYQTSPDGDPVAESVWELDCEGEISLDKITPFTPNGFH

Take `CCCCc1cc(O)c(C/C=C(\C)CCC=C(C)C)c(O)c1C(=O)O` [CBGA-C4, cannabigerolic acid butyl]: the “HCRTR1 (Agonist) percent activity” value at HCRTR1 [1] is recorded as 3%. In addition, the “HCRTR2 (Agonist) percent activity” value at HCRTR2 [2] came to 1%. In addition, at HCRTR1 [3], the “antagonist effect on HCRTR1 (in words)” value is on record as “do not demonstrate meaningful activity” and the “HCRTR1 (Antagonist) percent inhibition” value is listed as 2%. At HCRTR2 [4], the “antagonist effect on HCRTR2 (in words)” value was “do not demonstrate meaningful activity” and the “HCRTR2 (Antagonist) percent inhibition” value came out at 10%. For the same compound, the “DRD5 (Agonist) percent activity” value on dopamine receptor DRD5 is given as 0%.
`CCCc1cc(O)c(C/C=C(\C)CCC=C(C)C)c(O)c1` [CBGV, cannabigerivarin]: at HCRTR1 [1], the “HCRTR1 (Agonist) percent activity” value was 4%. Besides, on HCRTR2 [2], the “HCRTR2 (Agonist) percent activity” value is 2%. On HCRTR1 [3], the “antagonist effect on HCRTR1 (in words)” value is listed as “demonstrate activity against only HCRTR1; also recorded: acted as antagonists” and the “HCRTR1 (Antagonist) percent inhibition” value worked out at 44%. Moreover, on HCRTR2 [4], the “antagonist effect on HCRTR2 (in words)” value is reported as “demonstrate activity against only HCRTR1; also recorded: did not act as antagonists” and the “HCRTR2 (Antagonist) percent inhibition” value amounted to 12%. For the same compound, the “DRD5 (Agonist) percent activity” value at dopamine receptor DRD5 is listed as 6%.
For `CCCc1cc(O)c(C/C=C(\C)CCC=C(C)C)c(O)c1C(=O)O` [CBGVA, cannabigerovarinic acid], the “HCRTR1 (Agonist) percent activity” value on HCRTR1 [1] is recorded as 0%. For the same compound, the “HCRTR2 (Agonist) percent activity” value on HCRTR2 [2] was 1%. At HCRTR1 [3], the “antagonist effect on HCRTR1 (in words)” value is “do not demonstrate meaningful activity” and the “HCRTR1 (Antagonist) percent inhibition” value is on record as 3%. Moreover, on HCRTR2 [4], the “antagonist effect on HCRTR2 (in words)” value is given as “do not demonstrate meaningful activity” and the “HCRTR2 (Antagonist) percent inhibition” value is on record as 12%. For the same compound, the “DRD5 (Agonist) percent activity” value at dopamine receptor DRD5 worked out at 0%.
As to `CCCCCc1cc(O)c2c(c1)OC1(C)CCC3C1C2C3(C)C` (stereo not shown) [CBL, cannabicyclol], the “HCRTR1 (Agonist) percent activity” value at HCRTR1 [1] is reported as 2%. Moreover, the “HCRTR2 (Agonist) percent activity” value at HCRTR2 [2] turned out to be 5%. In addition, on HCRTR1 [3], the “antagonist effect on HCRTR1 (in words)” value is recorded as “antagonist effect; also recorded: acted as an antagonist” and the “HCRTR1 (Antagonist) percent inhibition” value is on record as 96%. In addition, on HCRTR2 [4], the “antagonist effect on HCRTR2 (in words)” value was “antagonist effect; also recorded: acted as an antagonist” and the “HCRTR2 (Antagonist) percent inhibition” value amounted to 93%. Also, at dopamine receptor DRD5, the “DRD5 agonist effect (in words)” value is reported as “DRD5 agonists; also recorded: stronger agonist effects” and the “DRD5 (Agonist) percent activity” value is on record as 37%.
Consider `CCCCCc1cc2c(c(O)c1C(=O)O)C1C3C(CCC3(C)O2)C1(C)C` (stereo not shown) [CBLA, cannabicyclolic acid], for which the “HCRTR1 (Agonist) percent activity” value on HCRTR1 [1] came out at 2%. Besides, the “HCRTR2 (Agonist) percent activity” value at HCRTR2 [2] was 0%. On HCRTR1 [3], the “antagonist effect on HCRTR1 (in words)” value is “do not demonstrate meaningful activity” and the “HCRTR1 (Antagonist) percent inhibition” value amounted to 7%. Also, on HCRTR2 [4], the “antagonist effect on HCRTR2 (in words)” value was “do not demonstrate meaningful activity” and the “HCRTR2 (Antagonist) percent inhibition” value is 15%. In addition, the “DRD5 (Agonist) percent activity” value at dopamine receptor DRD5 stood at 0%.
In the case of `CCCCCc1cc(O)c2c(c1)OC(C)(C)c1ccc(C)cc1-2` [CBN, cannabinol], the “HCRTR1 (Agonist) percent activity” value at HCRTR1 [1] turned out to be 1%. Moreover, at HCRTR2 [2], the “HCRTR2 (Agonist) percent activity” value is 7%. Besides, at HCRTR1 [3], the “antagonist effect on HCRTR1 (in words)” value is reported as “antagonist effect; also recorded: acted as an antagonist” and the “HCRTR1 (Antagonist) percent inhibition” value was determined as 95%. Further, at HCRTR2 [4], the “antagonist effect on HCRTR2 (in words)” value is reported as “antagonist effect; also recorded: acted as an antagonist” and the “HCRTR2 (Antagonist) percent inhibition” value was 94%. Besides, the “DRD5 (Agonist) percent activity” value on dopamine receptor DRD5 was determined as 3%.
Regarding `CCCc1cc(O)c2c(c1)OC(C)(C)[C@@H]1CCC(C)=C[C@@H]21` [THCV, tetrahydrocannabivarin], at HCRTR1 [1], the “HCRTR1 (Agonist) percent activity” value is reported as 2%. Moreover, the “HCRTR2 (Agonist) percent activity” value at HCRTR2 [2] stood at 6%. Besides, on HCRTR1 [3], the “antagonist effect on HCRTR1 (in words)” value is on record as “antagonist effect; also recorded: acted as an antagonist” and the “HCRTR1 (Antagonist) percent inhibition” value is 89%. At HCRTR2 [4], the “antagonist effect on HCRTR2 (in words)” value was “antagonist effect; also recorded: acted as an antagonist” and the “HCRTR2 (Antagonist) percent inhibition” value is 89%. Further, on dopamine receptor DRD5, the “DRD5 agonist effect (in words)” value is recorded as “DRD5 agonists; also recorded: stronger agonist effects” and the “DRD5 (Agonist) percent activity” value is recorded as 52%.
(+)-cannabidiol [(+)-CBD]: the “HCRTR1 (Agonist) percent activity” value on HCRTR1 [1] is 3%. Besides, at HCRTR2 [2], the “HCRTR2 (Agonist) percent activity” value was 8%. On HCRTR1 [3], the “antagonist effect on HCRTR1 (in words)” value is “antagonist effect; also recorded: acted as an antagonist” and the “HCRTR1 (Antagonist) percent inhibition” value was 97%. In addition, at HCRTR2 [4], the “antagonist effect on HCRTR2 (in words)” value was “antagonist effect; also recorded: acted as an antagonist” and the “HCRTR2 (Antagonist) percent inhibition” value worked out at 80%. At dopamine receptor DRD5, the “DRD5 (Agonist) percent activity” value is 9%.
